Data taken from PubChem BioAssay (NCI).
Values joined by “and” are separate entries in the source; they are usually repeats but may differ in a detail not shown here. Equal entries are not always repeated.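 Tested at 5 concentrations; 48 h exposure; 96-well plates; endpoints linearly interpolated, else capped at highest concentration. Here, GI50 denotes the concentration required for 50% inhibition of growth. The concentration for full growth arrest is given as TGI.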

Experiments:
Test in all cases: DTP human tumour cell line panel, 48 h
IGROV1 ovarian = test system: IGROV1 ovarian
NCI-H460 lung = test system: NCI-H460 lung
HCT-15 colon = test system: HCT-15 colon
K-562 leukemia = test system: K-562 leukemia
UACC-62 melanoma = test system: UACC-62 melanoma
SK-MEL-28 melanoma = test system: SK-MEL-28 melanoma
DU-145 prostate = test system: DU-145 prostate
HOP-62 NSCLC = test system: HOP-62 NSCLC
UO-31 renal = test system: UO-31 renal
KM12 colon = test system: KM12 colon

| Structure (SMILES) | GI50 (IGROV1 ovarian) | TGI (IGROV1 ovarian) | GI50 (NCI-H460 lung) | TGI (NCI-H460 lung) | GI50 (HCT-15 colon) | TGI (HCT-15 colon) | GI50 (K-562 leukemia) | TGI (K-562 leukemia) | GI50 (UACC-62 melanoma) | TGI (UACC-62 melanoma) | GI50 (SK-MEL-28 melanoma) | TGI (SK-MEL-28 melanoma) | GI50 (DU-145 prostate) | TGI (DU-145 prostate) | GI50 (HOP-62 NSCLC) | TGI (HOP-62 NSCLC) | GI50 (UO-31 renal) | TGI (UO-31 renal) | GI50 (KM12 colon) | TGI (KM12 colon) |
| --- | --- | --- | --- | --- | --- | --- | --- | --- | --- | --- | --- | --- | --- | --- | --- | --- | --- | --- | --- | --- |
| COc1ccc2c(c1)C(=O)c1c-2n(CCCCl)c(=O)c2cc(N)ccc12 | > 100 µM | > 100 µM | > 100 µM | > 100 µM | > 95.7 µM | > 100 µM | > 48.7 µM | > 100 µM | > 100 µM | > 100 µM | > 100 µM | > 100 µM | 56.9 µM | > 100 µM | > 100 µM | > 100 µM | > 100 µM | > 100 µM | 29.3 µM | > 100 µM |
| O=C(COc1cccc(/C=C2\Oc3ccc4ccccc4c3C2=O)c1)c1ccc([N+](=O)[O-])cc1 | 6.76 µM | 40.7 µM | 37 µM | > 100 µM | 12.3 µM | 30.9 µM | 12.4 µM | 39.4 µM | 14.1 µM | 30.4 µM | 48.4 µM | > 100 µM | 12.1 µM | 29.3 µM | 38.5 µM | > 100 µM | 36.7 µM | > 100 µM | 11.9 µM | 26.2 µM |
| CC1(C)CC[C@]2(CO)CC[C@]3(C)C(=CC[C@@H]4[C@@]5(C)CCNCC(C)(C)[C@@H]5CC[C@]43C)[C@@H]2C1 | 6.83 µM | 21 µM | 2.08 µM | 4.82 µM | 2.16 µM | 6.26 µM | 2.6 µM | 16.5 µM | 2.77 µM | 8.14 µM | 2.13 µM | 5.39 µM | 6.93 µM | 21 µM | 3.65 µM | 15.3 µM | 5.33 µM | 21.2 µM | 3.32 µM | 12.2 µM |
| O=C(O)c1cc(Cl)cc(Cc2cc(Cl)cc(C(=O)O)c2O)c1O |  | > 100 µM |  | > 100 µM |  | > 100 µM |  | > 100 µM |  | > 100 µM |  | > 100 µM |  | > 100 µM |  | > 100 µM |  | > 100 µM |  | > 100 µM |
| COc1ccc(C(Nc2ccccn2)c2cc(C(C)(C)C)cc(C(C)(C)C)c2O)cc1 (stereo unspecified) |  | > 100 µM |  | 55.7 µM |  | > 100 µM |  | > 100 µM |  | 67.1 µM |  | > 100 µM |  | > 100 µM |  | 78.2 µM |  | > 100 µM |  | 63.8 µM |
| C=C1C(O)C2CC(C)(C)C(=O)C2=C(CC(C)C)C12CC2 (stereo unspecified) | 55.6 µM | > 100 µM | > 100 µM | > 100 µM | > 100 µM | > 100 µM | > 100 µM | > 100 µM | > 100 µM | > 100 µM | > 100 µM | > 100 µM | > 100 µM | > 100 µM | > 100 µM | > 100 µM | > 100 µM | > 100 µM | > 100 µM | > 100 µM |
| OCC1OC(n2cnc3c(NCc4ccco4)ncnc32)C(O)C1O (stereo unspecified) | 2.09 µM | 13.9 µM | 2.79 µM | 32.8 µM | 0.524 µM | > 28.1 µM | 4.47 µM | > 100 µM | 3.34 µM | 29.7 µM | 8.72 µM | > 100 µM | 1.27 µM | 4.14 µM | 3.79 µM | > 48.9 µM | 0.567 µM | 53.7 µM | 8.51 µM | > 100 µM |
| COc1cc(/C=C/c2ccnc3ccccc23)cc(OC)c1OC | 4.94 µM | 35 µM and > 100 µM | 2.94 µM | 15.8 µM and 15 µM | 1.92 µM | > 100 µM and 70.1 µM | 0.746 µM | > 100 µM |  | 30.7 µM and > 100 µM | 4.06 µM | 37.2 µM and > 100 µM | 3.06 µM | 30.3 µM and 20.7 µM | 5.87 µM | 37.7 µM and > 100 µM |  | > 100 µM | 1.34 µM | 15.9 µM and 11.1 µM |
| CC(=N\O)/C(C)=N/O.CC(=N\O)/C(C)=N/O.[Fe].[NH2-].c1c[nH]cn1 | > 100 µM | > 100 µM | > 100 µM | > 100 µM | > 100 µM | > 100 µM | > 100 µM | > 100 µM | > 100 µM | > 100 µM | > 100 µM | > 100 µM | > 100 µM | > 100 µM | > 100 µM | > 100 µM | 1.43 µM | 4.34 µM | > 100 µM | > 100 µM |
| CCC(C)C(=O)OC1CCC=C2C=CC(C)C(CCC3CC(O)CC(=O)O3)C21 (stereo unspecified) |  | 44.1 µM |  | > 100 µM |  | > 100 µM |  | > 100 µM |  | > 100 µM |  | > 100 µM |  | > 100 µM |  | > 100 µM |  | > 100 µM |  | > 100 µM |
| NC(Cc1c[nH]c2cccc(F)c12)C(=O)O (stereo unspecified) | 43.8 µM |  | 34.9 µM and 235 µM | 2460 µM | 61.6 µM and 266 µM | 2870 µM | 68.5 µM and 269 µM | > 4500 µM | 582 µM | 1990 µM | 74.7 µM and 360 µM | > 4500 µM | 32 µM and 297 µM | > 4500 µM |  | 3180 µM | 842 µM | > 4500 µM | 25.2 µM and 230 µM | > 4500 µM |
| CC[Si](CC)(CC)OC1[C@@H](O[Si](CC)(CC)CC)[C@@H](CNC(=O)NC)O[C@H]1n1cnc2c(NC(=O)Nc3ccccc3)ncnc21 (stereo partly specified) | 5.02 µM | > 100 µM | 2.48 µM | 6.61 µM | 3.78 µM | > 100 µM | 3.49 µM | > 100 µM | 2.88 µM | 25.7 µM | 4.93 µM | > 100 µM | 4.41 µM | > 100 µM | 16 µM | > 100 µM | 2.8 µM | 18.1 µM | 3.26 µM | 9.5 µM |
| CC(=N/NC(N)=S)/C(C)=N/NC(N)=S |  | > 100 µM |  | > 100 µM |  | > 100 µM |  | > 100 µM |  | > 100 µM |  | > 100 µM |  | > 100 µM |  | > 100 µM |  | > 100 µM |  | > 100 µM |
| C/C=C(\C)C(=O)O[C@@H]1C=CC(=O)O[C@H]1CNC(=O)[C@H](C)O | 26.6 µM | > 78.1 µM | 22.2 µM | 67.9 µM | 18.5 µM | 45.4 µM | 16.9 µM | 64.2 µM | 16.9 µM | 37.7 µM | 16.1 µM | 35.8 µM | 22.6 µM | 69.1 µM | 26.4 µM | 65.3 µM | 21.3 µM | 59.1 µM | 17.3 µM | 36.3 µM |
| O=C1c2ccccc2C(=O)c2sc(Nc3ccc([N+](=O)[O-])cc3)nc21 |  | 26.2 µM |  | 34.4 µM |  | 18.9 µM |  | 5.98 µM |  | 8.31 µM |  | 25.7 µM |  | 33.5 µM |  | 27.1 µM |  | 8.94 µM |  | 25.8 µM |
| O=C(O)c1[nH]c2c([N+](=O)[O-])cc([N+](=O)[O-])cc2c1C(=O)O |  | > 100 µM |  | > 100 µM |  | > 100 µM |  | > 100 µM |  | > 100 µM |  | > 100 µM |  | > 100 µM |  | > 100 µM |  | > 100 µM |  | > 100 µM |
| CC1(C)CN(CCNc2nccc(-c3c(-c4cccc(O)c4)nc4sccn34)n2)S(=O)(=O)N1 | 6.58 µM | > 33.2 µM | 7.07 µM | > 33.2 µM | 11.5 µM | > 33.2 µM | 6.46 µM | > 33.2 µM | 0.116 µM | 3.3 µM | 0.268 µM | > 33.2 µM | 7.48 µM | > 33.2 µM | 32.7 µM | > 33.2 µM | 13.3 µM | > 33.2 µM | 11.9 µM | > 33.2 µM |
| CCC(=C(c1ccc(OCCN2CCCC2)cc1)c1ccc(OCCN2CCCC2)cc1)c1ccc(Cl)cc1 | 0.582 µM | 1.1 µM | 0.624 µM | 1.18 µM | 0.524 µM | 1.04 µM | 0.226 µM | 0.751 µM | 0.61 µM | 1.16 µM | 0.571 µM | 1.06 µM | 0.617 µM | 1.14 µM | 0.688 µM | 1.58 µM | 0.5 µM | 0.965 µM | 0.626 µM | 1.21 µM |
